What was measured:
Type in all cases: in vivo, rat
[1] = tested on: rats with chronic constriction injury (CCI); assay: Sensitivity to noxious cold (4° C. water) in CCI animals with oligonucleotide infusion; conditions: at peak, control CCI 8.1±0.5 s
Experimental: (§1) Thermal sensitivity was assessed by measuring paw withdrawal latency (PWL, s) in response to a noxious thermal stimulus (Hargreaves' thermal stimulator, Linton Instrumentation, Diss, UK) directed to the hindpaw mid-plantar glabrous surface. Mechanical sensitivity was recorded as the paw withdrawal threshold (PWT, mN/mm^2) to calibrated von Frey filaments (Stoelting, Ill., US), as previously described^[39]. Sensitivity to noxious cold was assessed by placing animals in a waterbath with an aluminium floor containing 1 cm deep 4° C. water and counting the time the paw was held suspended over a 20 s period.
Antisense and mis-sense oligonucleotides were 22-mers with phosphorothioate bonds at the last two positions at 5′ and 3′ ends (MWG Biotech, Ebersberg, Germany). Antisense extended from base −10 to base +12 relative to the start of the open reading frame for the rat TRPM8 gene: 5′ C*T*CGAAGGACATCTTGCCGT*G*G 3′, where * represents phosphorothioate linkages. Mis-sense was designed with 4 inversions of C/G or A/T as appropriate at residues 3, 11, 14 and 22, preserving overall G/C content. BLAST searches of both oligonucleotides indicated no significant complementarity to any known gene sequence. […]

TRPM8 = assay: Antisense knockdown of TRPM8, DRG immunoblots (TRPM8:GAPDH); conditions: for TRPM8:GAPDH ratio in DRG: intrathecal oligonucleotide infusion
From the text: Antisense and mis-sense oligonucleotides were 22-mers with phosphorothioate bonds at the last two positions at 5′ and 3′ ends (MWG Biotech, Ebersberg, Germany). Antisense extended from base −10 to base +12 relative to the start of the open reading frame for the rat TRPM8 gene: 5′ C*T*CGAAGGACATCTTGCCGT*G*G 3′, where * represents phosphorothioate linkages. Mis-sense was designed with 4 inversions of C/G or A/T as appropriate at residues 3, 11, 14 and 22, preserving overall G/C content. BLAST searches of both oligonucleotides indicated no significant complementarity to any known gene sequence. 14-day or 7-day osmotic minipumps (for CCI experiments or naïve electrophysiology experiments respectively—Alzet Minipump, models 2002, 2001; Charles River, UK) containing oligonucleotides (1 μg/μl in sterile saline) were connected to canulae inserted under the dura of the spinal cord to level L5/6 and produced a predicted infusion rate of 0.5 μl/h. CCI surgery was performed at the same time as minipump implantation. Sensory tests were carried out to assess the time-course of behavioural sensitisation in animals which had also undergone a CCI injury. Icilin was applied topically rather than intrathecally so as to prevent any interference with the infusion canula. […]
Ipsilateral or contralateral L4-L6 dorsal root ganglia (DRG) were taken from CCI animals (n=6), and from […]. […] Blots were incubated with rabbit polyclonal antibodies to TRPM8 (either an antibody raised against TRPM8 residues 278-292 and 1090-1104 (human); 1:500; Abcam Ltd., Cambridge, UK or occasionally an antibody raised against TRPM8 residues 656-680 (rat); 1:100; Phoenix Peptides, Belmont, Calif., USA), a rabbit polyclonal antibody to TRPV1 (1:250, Chemicon International Ltd, Harrow, UK) or a mouse monoclonal antibody to glyceraldehyde-3-phosphate dehydrogenase (GAPDH, 1:750; Chemicon) and immunoreactive bands were detected by […] secondary antibody and enhanced chemiluminescence. Quantitative densitometry analysis of protein bands was performed using the ScanAnalysis (Elsevier) programme.

[2] = tested on: rats with chronic constriction injury (CCI); assay: Cooling (16° C.)-induced analgesia in CCI rats with intrathecal mGluR antagonists; conditions: skin cooling to 16° C.; intrathecal LY 341495 5 nmol or UBP 1112 10 nmol
Experimental: Icilin was applied at concentrations of 2.5-500 μM (in water with 0.2% DMF), by placing CCI or naïve rats unrestrained for 5 min in a 1 cm deep waterbath (sufficient to cover paws), which was thermostatically controlled to a temperature of 30° C., or by very lightly anaesthetising rats and immersing hindpaws in small tubes containing 5 ml icilin (500 μM-5 mM, with a vehicle of 45% dimethylformamide in 0.2% aqueous Tween 80) for 5 min, followed by sensory testing for 60-80 mins. The effects of (−)-menthol and its stereoisomers isomenthol (1S,2R,5R-menthol,) and (+)-menthol (1S,2R,5S(+)-menthol) (4-16 mM in 80% ethanol) were also assessed. Relevant vehicles were always assessed in similar experiments. As a contrast, the effect of cinnamaldehyde (1.5 mM in water) and the effect of cinnamaldehyde with additional icilin (80 μM in water with 0.2% DMF) were assessed in naïve animals. The effects of icilin (80 μM) were further assessed in CCI animals that had undergone antisense and mis-sense treatment for knockdown of TRPM8 or immediately following intrathecal injection of either LY 341495 or UBP 1112. […] The effects of brief paw immersion at different temperatures (10-22° C. for 5 min) on CCI rats were assessed by mechanical testing. The effects of intrathecal LY 341495 or UBP 1112 on the reversal of ipsilateral sensitisation in CCI following a 16° C. cool challenge for 5 min were measured. […]

dorsal horn neurons = assay: Extracellular recordings of single spinal dorsal horn neurons in CCI animals (brush-evoked firing)
Experimental: Peripheral: Recordings of saphenous (sensory) nerve were made in naïve animals (n=7) to assess the effects of topical icilin on primary afferents. In addition, recordings were carried out on animals which had undergone TRPM8 antisense or mis-sense treatment beginning 4-5 days previously. Rats were anaesthetised (with 0.6 ml 25% urethane/100 g, i.p.) and the saphenous nerve was exposed and dissected from its associated vein and artery. Further dissection under liquid paraffin enabled identification of afferent preparations comprising a small number of fibres. The conduction velocity of single identified afferent fibres was determined using bipolar electrodes and the peripheral stimulus technique^[43]. Following isolation of preparations, icilin (200 μM in water with 0.2% DMF), (−)-menthol (4 mM in 25% ethanol) resiniferatoxin (1 mM in ethanol) or vehicle alone were applied to the hindlimb receptive fields and neuronal responses recorded using the Chart programme (version 3.6). Central: Recordings of spinal dorsal horn neurons were made in CCI animals, as described previously^[39]. Following halothane induction, the jugular vein and trachea were canulated and intravenous anaesthetic delivered: α-chloralose ([…], Fisher) and urethane ([…], Sigma), with small supplementary doses of α-chloralose as required throughout the experiment. Core body temperature was maintained at 37-38° C. by means of a thermostatically controlled heated blanket. The animal was placed in a stereotaxic frame, and the thoracolumbar spinal column was supported using three pairs of swan-necked clamps. A laminectomy was performed at L2-L5, and agar (2% in saline at 37° C.) was delivered over exposed cord to increase mechanical stability. Above the recording region the agar and spinal cord dura were removed and liquid paraffin poured into the pool. Extracellular recordings were made from single multireceptive neurons in laminae I-IV through the centre barrel of a seven-barrelled glass microelectrode filled with 4M NaCl (tip-diameter […], DC resistance 5-8 MΩ). The receptive fields of hair-follicle innervated neurons on the distal hindlimb were identified by an innocuous brush stimulus^[39]. Icilin (200 μM in water with 0.2% DMF) was applied peripherally to the receptive field of individual recorded neurons, and the effect on neuronal response to a rotating brush was recorded and analysed using Spike2 programme (Version 3.2, CED). The Group III mGluR antagonist UBP 1112 (20 mM in water), pH 8.5, and control 1M NaCl, pH 8.5 were ionophoresed from the side barrels of the electrode using currents of between 20 nA and 80 nA (Neurophore BH2 ionophoresis system, Medical Systems, Great Neck, N.Y.) to measure effects on neuronal response to icilin.

[3] = tested on: rats with chronic constriction injury (CCI) to sciatic nerve; assay: Topical application to paws of CCI rats, behavioural reflex testing (thermal PWL, mechanical PWT); conditions: icilin 200 μM topical; mGluR antagonists intrathecally
[4] = tested on: rats with chronic constriction injury (CCI) to sciatic nerve; assay: Intrathecal application in CCI rats, behavioural reflex testing (PWL, PWT)
Experimental: Pain models were generated under halothane anaesthesia (Zeneca, Cheshire, UK). For the chronic constriction injury (CCI) model of neuropathic pain, four ligatures were tied loosely to constrict the sciatic nerve at mid-thigh level (as described previously^[39]). An inflammatory pain model was generated by injecting 100 μl of Complete Freund's Adjuvant (CFA, Sigma-Aldrich Ltd) into the ventral surface of the right hindpaw^[39]. A model of peripheral demyelination-induced pain was produced by focal application of lysolecithin to the sciatic nerve^[40]. Peak behavioural sensitisation was observed post-surgically between days 10-16 for CCI, 1-3 for CFA, and 7-14 for lysolecithin, when pharmacological and electrophysiological experiments and tissue removal were conducted.
as §1
The following drugs were applied intrathecally in a 50 μl volume of saline-based vehicle at 37° C.: icilin (2.5-200 μM in saline with 0.2% dimethylformamide, DMF), LY 341495 (100 μM in saline), UBP 1112 (200 μM in saline), 2R,4R-APDC ((2R, 4R)-4-aminopyrrolidine-2,4-dicarboxylate), 300 μM in saline), ACPT-III ((1R,3R,4S)-1-aminocyclopentane-1,3,4-tricarboxylic acid), 3 mM in saline), AP-4, ((L-(1)-2-amino-4-phosphonobutyric acid), 3 mM in saline), naloxone (0.5 mM in saline), NMDA (75 μM in saline) and ACPC (1-aminocyclopropanecarboxylic acid, 15 μM in saline) (Tocris Cookson, Bristol, UK), (−)-menthol (1R,2S,5R-(−)-menthol, 4 mM in saline), cinnamaldehyde (1.5 mM in saline) and Ruthenium Red (5 μM in saline) (Sigma-Aldrich Co. Ltd, UK) and allicin (0.5 mM in saline with 0.5% DMF) and diallyl disulphide (DADS, 1 mM in saline with 0.5% DMF) (LKT Laboratories Inc., St Paul, Minn., USA). Drugs were injected into the L5/6 intrathecal space under brief halothane anaesthesia, using a 25-gauge needle microsyringe (BD Biosciences, Oxford, UK), as described previously^[39] in animals that were at peak levels of behavioural sensitisation. Behavioural reflex testing commenced 15 min following injection to allow recovery from anaesthesia^[40,41,42] and continued every 5 min thereafter until readings returned to baseline levels (n=6 in each case). We, and others^[40,41,42] find complete recovery from anaesthetic by 15 minutes. All appropriate controls were carried out to eliminate the possibility of effects due to vehicle or to injection procedure.
The TRPM8 channel activators, icilin and (−)-menthol were tested in CCI and naïve animals. The effects of icilin were additionally assessed in animals with CFA-induced inflammation or with lysolecithin-induced demyelination. Icilin was also co-administered with the μ-opioid receptor antagonist naloxone, the Group II metabotropic glutamate receptor (mGluR) antagonist, LY 341495, or the Group III mGluR antagonist, UBP 1112. The effects of these antagonists alone as well as effects of the Group II mGluR agonist, 2R,4R-APDC and the Group III mGluR agonists, ACPT-III and AP-4, were assessed in CCI animals. The TRPA1 channel activator, cinnamaldehyde, alone and with icilin, was tested in CCI animals and in naïve animals. Further TRPA1 channel activators, allicin and diallyl disulphide were assessed in naïve animals. Both icilin and cinnamaldehyde effects in CCI animals were also investigated in the additional presence of Ruthenium Red.

[5] = (−)-menthol 200 nmol plus intrathecal antagonist, 20-30 minutes post-injection

Row | Molecule | elevation of the paw ipsilateral to nerve injury out of 4° C. water [1] [s] | TRPM8:GAPDH ratio in DRG (TRPM8; contralateral to CCI) [%] | TRPM8:GAPDH ratio in DRG (TRPM8; ipsilateral to CCI) [%] | knockdown of the 128 kDa TRPM8 band in DRG (TRPM8; naïve rats, intrathecal delivery over 5 days) | mean percentage reversal of ipsilateral CCI-induced reductions in PWT caused by cooling [2] [%] | brush-induced firing rate with icilin plus UBP 1112 (dorsal horn neurons; UBP 1112 ionophoresed at 20-60 nA, icilin 200 μM topical) | effect of UBP 1112 alone on neuronal responses (dorsal horn neurons; ionophoresis) | effect on reversal of thermal and mechanical sensitisation by topical icilin [3] | mean percentage reversal of sensitisation by (−)-menthol with antagonist, PWL [4, 5] [%] | mean percentage reversal of sensitisation by (−)-menthol with antagonist, PWT [4, 5] [%] | effect on analgesia by intrathecal icilin ([4]; LY 341495 5 nmol, UBP 1112 10 nmol co-administered with icilin 10 nmol) | effect of antagonist alone ([4]; intrathecal, data not shown)
1 | 5′ C*T*CGAAGGACATCTTGCCGT*G*G 3′ (antisense CTCGAAGGACATCTTGCCGTGG; linkages s2 o17 s2 (s phosphorothioate, o phosphodiester), sugars by position and methylation of C not given here) [TRPM8 antisense, 22-mer with phosphorothioate bonds, base −10 to +12 of rat TRPM8 open reading frame] | 7.6 ± 0.6 | 14.9±2.1 | 19.8±2.2 | almost complete knockdown | – | – | – | – | – | – | – | –
2 | Cc1cc(C(C)(N)C(=O)O)ccc1P(=O)(O)O (stereo not drawn) [UBP 1112] | – | – | – | – | 0.0±0.0 | 80.2±9.3 % of control values | had no effect alone | prevented | 9.2±6.9 | 0.0±0.0 | prevented the effect of icilin | Neither LY 341495 nor UBP 1112 had any effects alone
